According to patent publication US12398154B2, “Azaquinazoline pan-KRas inhibitors” (Mirati Therapeutics, Inc., priority 2020, dated 2025):
pIC50: −log10 of the molar value.

How the values were obtained:
KRas G12D = KRas G12D (Homo sapiens, UniProt P01116, G12D); assay: biochemical;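 also: TR-FRET displacement binding assay on KRas, read after a one-hour incubation at room temperature, IC50 fitted from percent-of-control values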
Experimental: (§1) The ability of a compound to bind to KRas was measured using a TR-FRET displacement assay. […] After a 60-minute incubation at room temperature, the reaction was measured using a BMG LABTECH CLARIO star Plus via TR-FRET. […] The POC values were fit to a 4-parameter IC50 equation and the IC50 value reported.

KRas G12V = KRas G12V (Homo sapiens, UniProt P01116, G12V); assay: biochemical;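 also: KRas binding measured by TR-FRET displacement at room temperature, IC50 fitted from percent of control values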
KRas G12V, sequence (P01116 1-169 isoform P01116-2 G12V): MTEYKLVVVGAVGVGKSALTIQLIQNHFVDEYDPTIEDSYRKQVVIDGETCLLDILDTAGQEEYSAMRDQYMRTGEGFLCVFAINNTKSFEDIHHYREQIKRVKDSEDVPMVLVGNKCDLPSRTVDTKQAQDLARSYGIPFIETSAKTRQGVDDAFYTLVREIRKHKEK
Experimental: as §1

KRas G12R = KRas G12R (Homo sapiens, UniProt P01116, G12R); assay: biochemical;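 also: TR-FRET displacement assay of compound binding to KRas, read after one hour at room temperature, potency from a four-parameter fit of percent-of-control values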
KRas G12R, sequence (P01116 1-169 isoform P01116-2 G12R): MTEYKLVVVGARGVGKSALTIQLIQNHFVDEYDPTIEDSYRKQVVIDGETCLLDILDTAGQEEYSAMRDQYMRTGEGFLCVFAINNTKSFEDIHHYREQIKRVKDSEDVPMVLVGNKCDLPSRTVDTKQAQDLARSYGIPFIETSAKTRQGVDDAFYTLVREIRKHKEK
Experimental: as §1

KRas G12A = KRas G12A (Homo sapiens, UniProt P01116, G12A); assay: biochemical;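 also: binding to KRas measured by TR-FRET displacement after one hour at room temperature, IC50 from a four-parameter fit of percent-of-control values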
KRas G12A, sequence (P01116 1-169 isoform P01116-2 G12A): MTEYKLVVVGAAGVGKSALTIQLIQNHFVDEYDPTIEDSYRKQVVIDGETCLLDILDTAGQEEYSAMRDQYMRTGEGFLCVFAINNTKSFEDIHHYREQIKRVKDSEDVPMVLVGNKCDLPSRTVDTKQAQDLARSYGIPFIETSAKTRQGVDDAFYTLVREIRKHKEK
Experimental: as §1

KRas G12S = KRas G12S (Homo sapiens, UniProt P01116, G12S); assay: biochemical;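 also: TR-FRET displacement binding to KRas, read after one hour incubation at room temperature, IC50 from four-parameter fit of percent of control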
KRas G12S, sequence (P01116 1-169 isoform P01116-2 G12S): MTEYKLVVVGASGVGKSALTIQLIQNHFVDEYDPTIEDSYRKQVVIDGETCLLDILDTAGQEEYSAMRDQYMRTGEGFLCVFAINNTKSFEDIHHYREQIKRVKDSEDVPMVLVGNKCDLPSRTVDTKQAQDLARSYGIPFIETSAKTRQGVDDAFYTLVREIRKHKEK
Experimental: as §1

KRas G12C = KRas G12C (Homo sapiens, UniProt P01116, G12C); assay: biochemical;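 also: binding to KRas assessed by TR-FRET displacement after one hour incubation at room temperature, potency fitted from percent-of-control values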
KRas G12C, sequence (P01116 1-169 isoform P01116-2 G12C): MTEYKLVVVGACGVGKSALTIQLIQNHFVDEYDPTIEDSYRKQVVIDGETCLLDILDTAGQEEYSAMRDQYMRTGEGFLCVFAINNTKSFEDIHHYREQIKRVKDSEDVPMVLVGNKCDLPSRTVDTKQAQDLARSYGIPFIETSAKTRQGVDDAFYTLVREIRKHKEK
Experimental: as §1

KRas WT = KRas WT (Homo sapiens, UniProt P01116); assay: biochemical;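 also: binding to KRas read as TR-FRET displacement after a one-hour room-temperature incubation, IC50 derived from percent-of-control values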
KRas WT, sequence (P01116 1-169 isoform P01116-2): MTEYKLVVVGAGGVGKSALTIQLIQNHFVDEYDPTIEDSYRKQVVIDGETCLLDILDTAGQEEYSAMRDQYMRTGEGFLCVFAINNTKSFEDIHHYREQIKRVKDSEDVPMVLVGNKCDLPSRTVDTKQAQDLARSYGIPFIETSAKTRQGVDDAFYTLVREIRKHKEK
Experimental: as §1

pERK in MKN1 cells = assay: Inhibition of KRas phosphorylation of ERK (Cisbio HTRF pERK assay); details: Homo sapiens, MKN-1, 3 h, read-out: Inhibition (HTRF IC50) of KRas-mediated Phosphorylation of ERK, MKN1
pERK in PSN1 cells = assay: as above; details: Homo sapiens, PSN1, 3 h, read-out: Inhibition (HTRF IC50) of KRas-mediated Phosphorylation of ERK, PSN1
Experimental: (§2) To harvest cells from flask using 0.05% Trypsin/EDTA solution. Add 10 mL of media to stop trypsinizing. Pipette the cells into a conical bottom 50 mL centrifuge tube and centrifuge 5 min×1000 rpm. • 2. Re-suspend the cell pellet in media, take a cell count, and then adjust the cell density using fresh media. • 3. Seed 6,000 cells into cell culture plate with 50 μL media. […] Incubate cell plate overnight in a 37° C., 5% CO2 incubator. • Compound titrations • 1. Use Tecan to complete the compound addition. Compounds start from 10 uM top, 3-fold dilution, and 10 doses. The final DMSO concentration is 0.8%. Dispensed 0.2 uM Trametinib as Min control. • 2. Incubate cell plate for 3 hrs in the incubator. • Detection with cisbio pERK HTRF kit • 1. […] At the end of the compound treatment, flick-off the media. • 3. Add 35 μL of lysis buffer per well using a Multidrop Combi. Then place on a plate agitator shaking at 300 rpm at 4° C. for 40 mins. • 4. Make up the HTRF antibody buffer. For each assay plate, mix 50 μL of d2-conjugate antibody with 950 μL of detection buffer. Similarly, mix 50 μL of Cryptate antibody with 950 μL of detection buffer. Then mix the two diluted antibodies together. • 5. Dispense 3.4 μL the antibody buffer to wells of an empty assay plate. Seal the plate and centrifuge plate 30 sec×1000 rpm. • 6. At the end of the 4° C. lysis, centrifuge the lysate plates 3 mins×1500 rpm. • 7. Use the Bravo to transfer 13.6 μL of lysate from cell culture plate to assay plate.
(§3) Then incubate assay plate for 2 hrs at room temperature. […] At the end of incubation, read plate on the Envision after centrifuging plate 30 sec× • 1000 rpm.

pERK in ASPC1 cells = assay: as above; details: Homo sapiens, ASPC1, read-out: Inhibition (HTRF IC50) of KRas-mediated Phosphorylation of ERK, AsPC-1
pERK in H727 cells = assay: as above; details: Homo sapiens, NCI-H727, read-out: Inhibition (HTRF IC50) of KRas-mediated Phosphorylation of ERK, H727
Experimental: as §2, §3

pERK in HCT116 cells = assay: as above; details: Homo sapiens, HCT-116, read-out: Inhibition (HTRF IC50) of KRas-mediated Phosphorylation of ERK, HCT116

KRas G12D, sequence (P01116 1-169 isoform P01116-2 G12D): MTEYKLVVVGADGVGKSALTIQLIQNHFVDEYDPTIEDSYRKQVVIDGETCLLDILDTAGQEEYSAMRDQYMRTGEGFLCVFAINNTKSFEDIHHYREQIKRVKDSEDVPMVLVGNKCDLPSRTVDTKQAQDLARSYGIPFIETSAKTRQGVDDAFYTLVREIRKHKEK

Q: With CCc1c(F)ccc2cc(O)cc(-c3ncc4c(N5CCC[C@]6(CC(=O)N6)C5)nc(OCC5(CN6CCCC6)CC5)nc4c3F)c12 [Example 319, (S)-6-(7-(8-ethyl-7-fluoro-3-hydroxynaphthalen-1-yl)-8-fluoro-2-((1-(pyrrolidin-1-ylmethyl)cyclopropyl)methoxy)pyrido[4,3-d]pyrimidin-4-yl)-1,6-diazaspiro[3.5]nonan-2-one] as the molecule, how does the pIC50 (KRas G12D) read?
A: ≥ 8.70

Q: What about the pIC50 (KRas G12V) of the same molecule?
A: ≥ 8.70

Q: What about the pIC50 (KRas G12R) of the same molecule?
A: ≥ 8.70

Q: And the pIC50 (KRas G12A)?
A: ≥ 8.70

Q: What about the pIC50 (KRas G12S) of the same molecule?
A: ≥ 8.70

Q: And the pIC50 (KRas G12C)?
A: ≥ 8.70

Q: And the pIC50 (KRas WT)?
A: ≥ 8.70

Q: And the pIC50 (pERK in MKN1 cells)?
A: 6.92

Q: What about the pIC50 (pERK in PSN1 cells) of the same molecule?
A: ≤ 5.00

Q: And the pIC50 (pERK in ASPC1 cells)?
A: 6.36

Q: What about the pIC50 (pERK in H727 cells) of the same molecule?
A: 6.09

Q: And the pIC50 (pERK in HCT116 cells)?
A: 5.20

Q: With CCc1c(F)ccc2cc(O)cc(-c3ncc4c(N5CCC[C@]6(C5)NC(=O)NC6=O)nc(OCC5(CN6CCCC6)CC5)nc4c3F)c12 [Example 322, (R)-7-(7-(8-ethyl-7-fluoro-3-hydroxynaphthalen-1-yl)-8-fluoro-2-((1-(pyrrolidin-1-ylmethyl)cyclopropyl)methoxy)pyrido[4,3-d]pyrimidin-4-yl)-1,3,7-triazaspiro[4.5]decane-2,4-dione] as the molecule, how does the pIC50 (KRas G12D) read?
A: ≥ 8.70

Q: And the pIC50 (KRas G12V)?
A: ≥ 8.70

Q: What about the pIC50 (KRas G12R) of the same molecule?
A: ≥ 8.70

Q: What about the pIC50 (KRas G12C) of the same molecule?
A: ≥ 8.70

Q: And the pIC50 (KRas WT)?
A: ≥ 8.70

Q: And the pIC50 (pERK in MKN1 cells)?
A: 7.49

Q: What about the pIC50 (pERK in PSN1 cells) of the same molecule?
A: 5.04

Q: And the pIC50 (pERK in ASPC1 cells)?
A: 6.32

Q: What about the pIC50 (pERK in H727 cells) of the same molecule?
A: 6.59

Q: What about the pIC50 (pERK in HCT116 cells) of the same molecule?
A: 6.52

Q: C#Cc1c(F)ccc2cc(O)cc(-c3ncc4c(N5CC6C(=O)NC(=O)C6C5)nc(OC[C@@]56CCCN5C[C@H](F)C6)nc4c3F)c12 (stereo partly drawn) [Example 389, 5-(7-(8-ethynyl-7-fluoro-3-hydroxynaphthalen-1-yl)-8-fluoro-2-(((2R,7aS)-2-fluorohexahydro-1H-pyrrolizin-7a-yl)methoxy)pyrido[4,3-d]pyrimidin-4-yl)tetrahydropyrrolo[3,4-c]pyrrole-1,3(2H,3aH)-dione] was tested. Which pIC50 (KRas G12D) did it give?
A: ≥ 8.70

Q: What about the pIC50 (KRas G12V) of the same molecule?
A: ≥ 8.70

Q: And the pIC50 (KRas G12R)?
A: 8.52

Q: And the pIC50 (KRas G12A)?
A: ≥ 8.70

Q: And the pIC50 (KRas G12S)?
A: ≥ 8.70

Q: What about the pIC50 (KRas G12C) of the same molecule?
A: ≥ 8.70

Q: What about the pIC50 (KRas WT) of the same molecule?
A: ≥ 8.70

Q: What about the pIC50 (pERK in MKN1 cells) of the same molecule?
A: 7.02

Q: And the pIC50 (pERK in PSN1 cells)?
A: ≤ 5.00

Q: What about the pIC50 (pERK in ASPC1 cells) of the same molecule?
A: 6.57

Q: And the pIC50 (pERK in H727 cells)?
A: 6.01

Q: And the pIC50 (pERK in HCT116 cells)?
A: 5.96

Q: How did the pIC50 (KRas G12D) turn out when O=C1NC(=O)C2CN(c3nc(OC[C@@]45CCCN4C[C@H](F)C5)nc4c(F)c(-c5cc(O)cc6ccc(F)c(Br)c56)ncc34)CC12 (stereo partly drawn) [Example 404, 5-(7-(8-bromo-7-fluoro-3-hydroxynaphthalen-1-yl)-8-fluoro-2-(((2R,7aS)-2-fluorohexahydro-1H-pyrrolizin-7a-yl)methoxy)pyrido[4,3-d]pyrimidin-4-yl)tetrahydropyrrolo[3,4-c]pyrrole-1,3(2H,3aH)-dione] was run?
A: ≥ 8.70

Q: And the pIC50 (KRas G12V)?
A: ≥ 8.70

Q: What about the pIC50 (KRas G12R) of the same molecule?
A: ≥ 8.70

Q: And the pIC50 (pERK in MKN1 cells)?
A: 7.26

Q: And the pIC50 (pERK in PSN1 cells)?
A: ≤ 5.00

Q: What about the pIC50 (pERK in ASPC1 cells) of the same molecule?
A: 6.87

Q: What about the pIC50 (pERK in H727 cells) of the same molecule?
A: 6.09

Q: And the pIC50 (pERK in HCT116 cells)?
A: 5.86

Q: What does the source list for O=C1NCC2(CCCN(c3nc(OC[C@@]45CCCN4C[C@H](F)C5)nc4c(F)c(-c5cc(O)cc6ccc(F)c(Br)c56)ncc34)C2)N1 (stereo partly drawn) [Example 409, 7-(7-(8-bromo-7-fluoro-3-hydroxynaphthalen-1-yl)-8-fluoro-2-(((2R,7aS)-2-fluorohexahydro-1H-pyrrolizin-7a-yl)methoxy)pyrido[4,3-d]pyrimidin-4-yl)-1,3,7-triazaspiro[4.5]decan-2-one]?
A: pIC50 (KRas G12D): ≥ 8.70; pIC50 (KRas G12V): ≥ 8.70; pIC50 (KRas G12R): ≥ 8.70; pIC50 (pERK in MKN1 cells): 7.03; pIC50 (pERK in PSN1 cells): ≤ 5.00; pIC50 (pERK in ASPC1 cells): 6.40; pIC50 (pERK in H727 cells): 6.23; pIC50 (pERK in HCT116 cells): 5.93

Q: What does the source list for O=C1NC(=O)C2(CCCN(c3nc(OC[C@@]45CCCN4C[C@H](F)C5)nc4c(F)c(-c5cc(O)cc6ccc(F)c(Br)c56)ncc34)C2)N1 (stereo partly drawn) [Example 410, 7-(7-(8-bromo-7-fluoro-3-hydroxynaphthalen-1-yl)-8-fluoro-2-(((2R,7aS)-2-fluorohexahydro-1H-pyrrolizin-7a-yl)methoxy)pyrido[4,3-d]pyrimidin-4-yl)-1,3,7-triazaspiro[4.5]decane-2,4-dione]?
A: pIC50 (KRas G12D): ≥ 8.70; pIC50 (KRas G12V): ≥ 8.70; pIC50 (KRas G12R): ≥ 8.70; pIC50 (pERK in MKN1 cells): 6.80; pIC50 (pERK in PSN1 cells): 5.50; pIC50 (pERK in ASPC1 cells): 6.44; pIC50 (pERK in H727 cells): 6.22; pIC50 (pERK in HCT116 cells): 6.22

Q: O=C1NC(=O)[C@]2(CCCN(c3nc(OC[C@@]45CCCN4C[C@H](F)C5)nc4c(F)c(-c5cc(O)cc6ccc(F)c(Cl)c56)ncc34)C2)N1 [Example 413, (R)-7-(7-(8-chloro-7-fluoro-3-hydroxynaphthalen-1-yl)-8-fluoro-2-(((2R,7aS)-2-fluorohexahydro-1H-pyrrolizin-7a-yl)methoxy)pyrido[4,3-d]pyrimidin-4-yl)-1,3,7-triazaspiro[4.5]decane-2,4-dione] was tested. Which pIC50 (KRas G12D) did it give?
A: ≥ 8.70

Q: What about the pIC50 (KRas G12V) of the same molecule?
A: ≥ 8.70

Q: What about the pIC50 (KRas G12R) of the same molecule?
A: 8.52

Q: And the pIC50 (pERK in MKN1 cells)?
A: 7.48

Q: And the pIC50 (pERK in PSN1 cells)?
A: 5.60

Q: What about the pIC50 (pERK in ASPC1 cells) of the same molecule?
A: 6.32

Q: What about the pIC50 (pERK in H727 cells) of the same molecule?
A: 6.39

Q: And the pIC50 (pERK in HCT116 cells)?
A: 6.32

Q: With NS(=O)(=O)CC1CCCN(c2nc(OC[C@@]34CCCN3C[C@H](F)C4)nc3c(F)c(-c4cc(O)cc5ccc(F)c(Cl)c45)ncc23)C1 (stereo partly drawn) [Example 414, 1-(1-(7-(8-chloro-7-fluoro-3-hydroxynaphthalen-1-yl)-8-fluoro-2-(((2R,7aS)-2-fluorotetrahydro-1H-pyrrolizin-7a(5H)-yl)methoxy)pyrido[4,3-d]pyrimidin-4-yl)piperidin-3-yl)methanesulfonamide] as the molecule, how does the pIC50 (KRas G12D) read?
A: ≥ 8.70

Q: What about the pIC50 (KRas G12V) of the same molecule?
A: ≥ 8.70

Q: What about the pIC50 (KRas G12R) of the same molecule?
A: 8.40

Q: What about the pIC50 (pERK in MKN1 cells) of the same molecule?
A: 7.49

Q: What about the pIC50 (pERK in PSN1 cells) of the same molecule?
A: 5.46

Q: What about the pIC50 (pERK in ASPC1 cells) of the same molecule?
A: 5.87

Q: What about the pIC50 (pERK in H727 cells) of the same molecule?
A: 6.57

Q: What about the pIC50 (pERK in HCT116 cells) of the same molecule?
A: 6.29

Q: Which results are given for O=C1NC[C@]2(CCCN(c3nc(OC[C@@]45CCCN4C[C@H](F)C5)nc4c(F)c(-c5cc(O)cc6ccc(F)c(Cl)c56)ncc34)C2)N1 [Example 415, (S)-7-(7-(8-chloro-7-fluoro-3-hydroxynaphthalen-1-yl)-8-fluoro-2-(((2R,7aS)-2-fluorohexahydro-1H-pyrrolizin-7a-yl)methoxy)pyrido[4,3-d]pyrimidin-4-yl)-1,3,7-triazaspiro[4.5]decan-2-one]?
A: pIC50 (KRas G12D): ≥ 8.70; pIC50 (KRas G12V): 7.40; pIC50 (KRas G12R): 8.52; pIC50 (pERK in MKN1 cells): 7.34; pIC50 (pERK in PSN1 cells): ≤ 5.00; pIC50 (pERK in ASPC1 cells): 6.26; pIC50 (pERK in H727 cells): 6.04; pIC50 (pERK in HCT116 cells): 5.59

Q: How did the pIC50 (KRas G12D) turn out when OCC1COCCN(c2nc(OC[C@@]34CCCN3C[C@H](F)C4)nc3c(F)c(-c4cc(O)cc5ccc(F)c(Cl)c45)ncc23)C1 (stereo partly drawn) [Example 420, 5-chloro-6-fluoro-4-(8-fluoro-2-(((2R,7aS)-2-fluorohexahydro-1H-pyrrolizin-7a-yl)methoxy)-4-(6-(hydroxymethyl)-1,4-oxazepan-4-yl)pyrido[4,3-d]pyrimidin-7-yl)naphthalen-2-ol] was run?
A: 8.52

Q: And the pIC50 (KRas G12V)?
A: ≥ 8.70

Q: And the pIC50 (KRas G12R)?
A: 8.40

Q: And the pIC50 (pERK in MKN1 cells)?
A: 7.25

Q: What about the pIC50 (pERK in PSN1 cells) of the same molecule?
A: ≤ 5.00

Q: And the pIC50 (pERK in ASPC1 cells)?
A: 6.07

Q: What about the pIC50 (pERK in H727 cells) of the same molecule?
A: 6.44

Q: And the pIC50 (pERK in HCT116 cells)?
A: 5.88

Q: How did the pIC50 (KRas G12D) turn out when Cc1c(F)ccc2cc(O)cc(-c3ncc4c(N5CCCC(CS(N)(=O)=O)C5)nc(OC[C@@]56CCCN5C[C@H](F)C6)nc4c3F)c12 (stereo partly drawn) [Example 461, 1-(1-(8-fluoro-7-(7-fluoro-3-hydroxy-8-methylnaphthalen-1-yl)-2-(((2R,7aS)-2-fluorohexahydro-1H-pyrrolizin-7a-yl)methoxy)pyrido[4,3-d]pyrimidin-4-yl)piperidin-3-yl)methanesulfonamide] was run?
A: ≥ 8.70

Q: What about the pIC50 (KRas G12V) of the same molecule?
A: ≥ 8.70

Q: What about the pIC50 (KRas G12R) of the same molecule?
A: ≥ 8.70

Q: What about the pIC50 (pERK in MKN1 cells) of the same molecule?
A: 7.74

Q: What about the pIC50 (pERK in PSN1 cells) of the same molecule?
A: 5.42

Q: And the pIC50 (pERK in ASPC1 cells)?
A: 5.94

Q: And the pIC50 (pERK in H727 cells)?
A: 6.62

Q: What about the pIC50 (pERK in HCT116 cells) of the same molecule?
A: 6.76
